The term IC50 denotes the concentration needed to halve the response being measured.

SMILES strings stand for the structures. Records with an inconclusive call do not appear.

IC50 data for 40 compounds are collected here from PubChem BioAssay AID1117319 (Southern Research Institute, 2015).

The target in this assay is Virion infectivity factor (Human immunodeficiency virus type 1 group M subtype B (isolate BH10)) + Virion infectivity factor (Human immunodeficiency virus type 1 group M subtype B (isolate BRU/LAI)) + Virion infectivity factor (Human immunodeficiency virus type 1 group M subtype B (isolate PCV12)) + Virion infectivity factor (Human immunodeficiency virus type 1 group M subtype B (isolate HXB2)) + DNA dC->dU-editing enzyme APOBEC-3G (Homo sapiens) (UniProt P69720+P69721+P69722+P69723+Q9HC16). Put plainly: inhibitors of Vif binding to APOBEC3G peptide, primary screen, biochemical, TR-FRET, GST-Vif 1-94, biotin-A3G peptide, dose response retest (AID 1117319).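 Note: Vif residues 1-94 fused to GST binding biotinylated APOBEC3G peptide 110-148.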
Consider `COc1ccc(NCc2nc3ccccc3n2CCOc2ccccc2)cc1`, for which the IC50 is 49 µM.

As to `COc1ccc(N2CCN(c3nc4ccccc4nc3NS(=O)(=O)c3ccccc3)CC2)cc1`, the IC50 is 66.6 µM.

For the compound `CC(C)(C)C(=O)OCc1nc(-c2ccc(O)c(O)c2)cs1`, the half-inhibitory concentration (IC50) was 17.1 µM.

As to `CC1CCC/C(=C\Nc2ccc(C(=O)O)c(O)c2)C1=O` (stereo not given), the 50% inhibitory concentration (IC50) is 17.1 µM.

Take `Oc1ccc(/C=N/N=C/c2ccc(O)c(O)c2)cc1O`: the half-maximal inhibitory concentration (IC50) was 4.82 µM.

With `O=C(COC(=O)c1c2c(nc3ccccc13)/C(=C\c1ccco1)CC2)NC1CCCC1`, the IC50 was 3.67 µM.

Take `Cc1ccc(-n2nc(-c3ccc(N)cc3)cc2N)cc1`: the IC50 was 33.5 µM.

As for `COc1cccc(CNCCc2c[nH]c3ccccc23)c1OCc1ccccc1`, the IC50 was 56 µM.

Take `O=C(CSc1ccccc1)N1CCN(c2ccccc2)CC1`: the IC50 is 67.4 µM.

Regarding `CC1CCCCN1Cc1ccc(N(C)C)cc1` (stereo not given), the half-maximal inhibitory concentration (IC50) was 66.6 µM.

Regarding `Cc1ccc(-c2ccc(CCC(=O)O)n2NC(N)=S)cc1`, the half-maximal inhibitory concentration (IC50) was 11.5 µM.

For `O=C(O)c1cc2cccc(S(=O)(=O)N3CCOCC3)c2cc1O`, the IC50 was 38 µM.

In the case of `CCCCN1C2CCCC1CC(NC(=O)c1ccc(OC)c(OC)c1)C2` (stereo not given), the half-inhibitory concentration (IC50) was 19.1 µM.

With `O=C(O)c1ccc(Cl)c2c1C1C=CCC1C(c1ccccn1)N2` (stereo not given), the IC50 is 0.82 µM.

As to `Cc1cc(C(=O)CSc2nc3ccccc3c(=O)[nH]2)c(C)n1C`, the IC50 was 31.6 µM.

As for `O=C(Nc1nc(-c2ccco2)c(-c2ccco2)s1)C1CCC1`, the IC50 was 1.93 µM.

On to `c1ccc2c(c1)CCCN2Cc1nnc2n1CCCCC2`, for which the IC50 was 31.5 µM.

Turning to `O=C(NNC(=O)c1ccccc1O)c1cc2ccccc2o1`, the IC50 is 16.5 µM.

In the case of `CC(C)CCNC(=O)Cn1c2c(c(-c3ccccc3Cl)cc1=O)CCC2`, the IC50 is 19.7 µM.

Regarding `Cc1cc(F)ccc1S(=O)(=O)Nc1ccccc1C(=O)Nc1ccc2[nH]c(=O)[nH]c2c1`, the half-inhibitory concentration (IC50) was 78 µM.

`COC(Cc1nnc(SC)n1-c1ccc(Cl)cc1)OC`: the IC50 is 43 µM.

Take `O=C(O)CC(Cn1cnnn1)c1ccccc1` (stereo not given): the IC50 is 58.8 µM.

Regarding `O=C1CCCC(O)=C1N=Nc1ccc(C(=O)O)cc1`, the IC50 is 2.72 µM.

On to `C(=C\c1ccco1)/c1ccc2ccccc2n1`, for which the 50% inhibitory concentration (IC50) is 5.09 µM.

For the compound `COC(=O)c1ccc(COc2ccc(/C=N/Nc3cccc(C(=O)O)c3)cc2)cc1`, the IC50 is 63.2 µM.

On to `COc1ccc2c(c1)c1ccc3c(c1n2C)C(=O)C=CC3=O`, for which the IC50 was 2.42 µM.

Consider `CCN1CCN(C2=NC(=O)/C(=C/c3ccc(C)o3)S2)CC1`, for which the IC50 is 3.48 µM.

On to `CN(C)c1ncc(C2=C(Cl)C(=O)C(N3CCCC3)=C(Cl)C2=O)s1`, for which the IC50 is 0.38 µM.

As for `Cc1cccc(N/N=C/c2ccc(O)c(O)c2O)c1`, the concentration for half-maximal inhibition (IC50) is 9.51 µM.

For the compound `Cc1ccc(-c2nnn(CC(=O)N(c3ccc(F)cc3)C(C(=O)NC3CCCC3)c3ccco3)n2)o1` (stereo not given), the IC50 was 85.8 µM.

For the compound `CSc1oc(-c2ccco2)nc1S(=O)(=O)c1ccccc1`, the half-inhibitory concentration (IC50) is 31.5 µM.

`Cc1cccn2c(=O)c3cc(C(=O)NCc4ccco4)c(=N)n(CCc4ccccc4)c3nc12`: the IC50 was 34 µM.

For `O=C(NCCCO)c1ccc2nc(-c3ccco3)c(-c3ccco3)nc2c1`, the IC50 was 0.72 µM.

Turning to `CCOc1cc(N2CCOCC2)c(OCC)cc1NC(C)C(=O)N1CCN(CC)CC1` (stereo not given), the IC50 was 23.9 µM.

In the case of `O=C(COC(=O)c1ccc(NS(=O)(=O)c2cccs2)cc1)NCc1ccco1`, the half-maximal inhibitory concentration (IC50) was 5.88 µM.

With `Cc1cc(C)c(C(=O)/C=C/c2ccco2)c(=O)[nH]1`, the IC50 is 8.81 µM.

On to `CC(=C\c1ccco1)/C=C1/SC(=S)N(CC(=O)O)C1=O`, for which the IC50 is 14.7 µM.

As to `O=C(NNC(=O)c1ccccc1O)c1ccc(-c2ccc([N+](=O)[O-])cc2)o1`, the IC50 is 32.3 µM.

With `O=C(NCc1ccccc1)c1ccc2nc(-c3ccco3)c(-c3ccco3)nc2c1`, the IC50 is 0.48 µM.

As to `Cn1c(SCC(=O)c2cc(Cl)c(Cl)s2)nnc1-c1ccco1`, the IC50 was 30.7 µM.
